Assay results as given in patent US10953028B2, “Method of treating heterotopic ossification” (THE REGENTS OF THE UNIVERSITY OF MICHIGAN, priority 2015, dated 2021).
Several values for one entry are separate records, joined by “and”; a condition that tells them apart may be missing. Equal entries are not always repeated.

Experiments:
[1] = system: caACVR1fl/fl mice injected with cardiotoxin and Ad.cre; conditions: mouse, in vivo
burn/tenotomy mice = assay: Burn/tenotomy trauma-induced HO model (microCT, histology, immunostaining); assay type: in vivo, mouse; conditions: 9 weeks

CO[C@H]1C[C@@H]2CC[C@@H](C)[C@@](O)(O2)C(=O)C(=O)N2CCCC[C@H]2C(=O)O[C@H]([C@H](C)C[C@@H]2CC[C@@H](O)[C@H](OC)C2)CC(=O)[C@H](C)/C=C(\C)[C@@H](O)[C@@H](OC)C(=O)[C@H](C)C[C@H](C)/C=C/C=C/C=C/1C [rapamycin]
total HO normalized volume [1]: 0.0
total HO volume [1]: 0.00 mm^3 and 0.0 mm^3
de novo (soft tissue) HO volume (burn/tenotomy mice; rapamycin 5 mg/kg i.p. every other day, control 1.60 mm^3): 0.81 mm^3
de novo (soft tissue) HO normalized volume (burn/tenotomy mice; rapamycin 5 mg/kg i.p., control = 1.0): 0.51
